Test results taken from the supplement of paper PMC10627819.

Legend:
B. subtilis 168 [1] = test: fitness (endpoint OD595 vs no drug) (fraction); higher = more growth
Method in brief: (§1)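 Fitness was defined as the optical density at the transition into stationary phase relative to the robust mean of no-drug control wells. Values were capped at 1. Cultures were started at OD595 0.01 in 384-well plates (30 µl, or 55 µl for S. pneumoniae) in TSB, LB Lennox or CY at 37 °C. OD595 was recorded every 30 min over 14 h, with the first reading subtracted as background.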

S. aureus DSM 20231 [2] = test: as above
Method in brief: as §1

S. aureus Newman [3] = test: as above
Method in brief: as §1

S. pneumoniae D39V [4] = test: as above
Method in brief: as §1

B. subtilis 168 [5] = test: Bliss interaction score (quartile over a dose matrix) (fitness difference); higher = more antagonism (negative = synergy)
Method in brief: (§2)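 Growth was read as OD595 when cultures entered stationary phase, and each value was divided by the plate's robust no-drug mean and capped at 1. This normalised ratio is the fitness value, and fitness for each single drug came from the combination data. The Bliss score subtracts the expected fitness, taken as the product, from the observed fitness and is given as quartiles across technical, biological and donor/recipient replicates.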

S. aureus DSM 20231 [6] = test: as above
Method in brief: as §2

S. aureus Newman [7] = test: as above
Method in brief: as §2

S. pneumoniae D39V [8] = test: as above
Method in brief: as §2
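Throughout, for Bliss interaction score (quartile over a dose matrix): first quartile when negative (synergy) and third quartile when positive (antagonism).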

O=C(O[C@@H]1Cc2c(O)cc(O)cc2O[C@@H]1c1cc(O)c(O)c(O)c1)c1cc(O)c(O)c(O)c1 [EGCG] + CN[C@@H]1[C@H](O)[C@H](NC)[C@H]2O[C@@]3(O)C(=O)C[C@@H](C)O[C@H]3O[C@@H]2[C@H]1O [Spectinomycin]
fitness
Conditions | B. subtilis 168 [1] | S. aureus DSM 20231 [2] | S. aureus Newman [3] | S. pneumoniae D39V [4]
first compound 6.25 µg/mL, partner 2 µg/mL | 0.919 | – | – | –
first compound 6.25 µg/mL, partner 4 µg/mL | 0.959 | – | – | –
first compound 6.25 µg/mL, partner 8 µg/mL | 0.942 | – | – | –
first compound 12.5 µg/mL, partner 4 µg/mL | – | 0.716 | 0.775 | 0.918
first compound 12.5 µg/mL, partner 8 µg/mL | 0.755 | 0.841 | 0.825 | 0.892
first compound 12.5 µg/mL, partner 16 µg/mL | – | 0.783 | 0.783 | 0.662
first compound 25 µg/mL, partner 4 µg/mL | – | 0.795 | 0.631 | 0.884
first compound 25 µg/mL, partner 8 µg/mL | 0.351 | 0.829 | 0.784 | 0.858
first compound 25 µg/mL, partner 16 µg/mL | – | 0.696 | – | 0.692
first compound 50 µg/mL, partner 4 µg/mL | – | 0.762 | – | 0.928
first compound 50 µg/mL, partner 8 µg/mL | – | 0.778 | 0.748 | 0.942
first compound 50 µg/mL, partner 16 µg/mL | – | 0.724 | – | –

fitness, one replicate
Conditions | first compound 12.5 µg/mL | first compound 25 µg/mL | first compound 50 µg/mL
S. aureus DSM 20231 [2], partner 32 µg/mL | 0.732 | 0.693 | 0.556
S. aureus DSM 20231 [2], partner 64 µg/mL | 0.118 | 0.0939 | 0.028
S. aureus Newman [3], partner 32 µg/mL | 0.385 | 0.167 | 0.0466
S. aureus Newman [3], partner 64 µg/mL | 0.0419 | 0.0446 | 0.0186

Conditions | Bliss interaction score
B. subtilis 168 [5] | -0.0513
S. aureus DSM 20231 [6] | -0.0655
S. aureus Newman [7] | -0.0777
S. pneumoniae D39V [8] | -0.0456

O=C(O[C@@H]1Cc2c(O)cc(O)cc2O[C@@H]1c1cc(O)c(O)c(O)c1)c1cc(O)c(O)c(O)c1 [EGCG] + COc1c(N2C[C@@H]3CCCN[C@@H]3C2)c(F)cc2c(=O)c(C(=O)O)cn(C3CC3)c12 [Moxifloxacin]
fitness
Conditions | first compound 6.25 µg/mL | first compound 12.5 µg/mL | first compound 25 µg/mL | first compound 50 µg/mL
B. subtilis 168 [1], partner 0.0312 µg/mL | 0.0635 | 0.316 | 0.136 | –
B. subtilis 168 [1], partner 0.0625 µg/mL | 0.0647 | 0.0486 | 0.0468 | –
B. subtilis 168 [1], partner 0.125 µg/mL | 0.0455 | 0.0337 | 0.032 | –
B. subtilis 168 [1], partner 2 µg/mL | 0.0355 | 0.0567 | 0.0285 | –
B. subtilis 168 [1], partner 4 µg/mL | 0.0375 | 0.028 | 0.0104 | –
B. subtilis 168 [1], partner 8 µg/mL | 0.0396 | 0.0267 | 0.0587 | –
S. aureus DSM 20231 [2], partner 0.0075 µg/mL | – | 0.686 | 0.605 | 0.629
S. aureus DSM 20231 [2], partner 0.015 µg/mL | – | 0.615 | 0.628 | 0.594
S. aureus DSM 20231 [2], partner 0.03 µg/mL | – | 0.53 | 0.554 | –
S. aureus Newman [3], partner 0.0075 µg/mL | – | 0.704 | 0.695 | –
S. aureus Newman [3], partner 0.015 µg/mL | – | – | – | 0.582
S. aureus Newman [3], partner 0.03 µg/mL | – | 0.3 | – | 0.0803
S. pneumoniae D39V [4], partner 0.005 µg/mL | – | 0.942 | 0.947 | 0.973
S. pneumoniae D39V [4], partner 0.01 µg/mL | – | 0.966 | 0.973 | 0.989
S. pneumoniae D39V [4], partner 0.02 µg/mL | – | 0.918 | 0.933 | 0.931
S. pneumoniae D39V [4], partner 0.0312 µg/mL | – | 0.265 | 0.152 | 0.499
S. pneumoniae D39V [4], partner 0.0625 µg/mL | – | 0.0738 | 0.0517 | 0.944
S. pneumoniae D39V [4], partner 0.125 µg/mL | – | 0.0322 | 0.0297 | 0.69

fitness, S. aureus DSM 20231 [2], one replicate
Conditions | first compound 12.5 µg/mL | first compound 25 µg/mL | first compound 50 µg/mL
partner 0.06 µg/mL | 0.636 | 0.584 | 0.607
partner 0.12 µg/mL | 0.537 | 0.495 | 0.506

Conditions | Bliss interaction score
B. subtilis 168 [5] | 0.04
S. aureus DSM 20231 [6] | -0.0635
S. aureus Newman [7] | 0.103
S. pneumoniae D39V [8] | -0.0486
